Calls of active or inactive are those of the source.
Columns and labels:
Format in all cases: functional
[1] = target: Glycogen synthase kinase-3 alpha (Homo sapiens, UniProt P49840); assay: GSK3A enzyme blockers, homolog specificity check – biochemical, microfluidics, dry powder samples, set 2, selectivity assay for GSK3beta inhibitor project, dose response (AID 623978)
[2] = target: Cyclin-dependent kinase 5/CDK5 activator 1 (Homo sapiens, UniProt Q00535); assay: inhibitors of human CDK5 activity – biochemical, microfluidic mobility shift, dry powder, set 2, selectivity assay for GSK3beta inhibitor project, dose response (AID 623979)
Chain of Cyclin-dependent kinase 5/CDK5 activator 1 (Q00535 whole entry): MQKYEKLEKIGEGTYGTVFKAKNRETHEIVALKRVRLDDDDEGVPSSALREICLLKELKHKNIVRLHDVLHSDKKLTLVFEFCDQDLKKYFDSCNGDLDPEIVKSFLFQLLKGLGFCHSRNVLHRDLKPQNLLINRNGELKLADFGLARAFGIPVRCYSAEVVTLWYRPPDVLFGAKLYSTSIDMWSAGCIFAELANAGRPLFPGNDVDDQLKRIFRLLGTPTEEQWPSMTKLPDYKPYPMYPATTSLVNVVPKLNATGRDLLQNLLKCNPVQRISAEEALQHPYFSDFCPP
Chain of Cyclin-dependent kinase 5/CDK5 activator 1 (Q15078 whole entry, further chain): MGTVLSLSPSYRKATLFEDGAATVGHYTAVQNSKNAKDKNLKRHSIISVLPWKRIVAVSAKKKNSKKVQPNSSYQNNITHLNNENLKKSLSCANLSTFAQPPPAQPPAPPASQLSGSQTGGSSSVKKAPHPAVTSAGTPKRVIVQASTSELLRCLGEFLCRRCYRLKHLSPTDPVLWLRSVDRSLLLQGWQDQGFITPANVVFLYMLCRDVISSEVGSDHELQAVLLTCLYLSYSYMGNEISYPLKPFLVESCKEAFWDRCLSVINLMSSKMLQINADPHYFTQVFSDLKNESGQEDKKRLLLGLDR

[3] = target: Glycogen synthase kinase-3 beta (Homo sapiens, UniProt P49841); assay: inhibition of human GSK3B activity – biochemical, microfluidics, dry powder samples, set 2, dose response (AID 623989)
Chain of Glycogen synthase kinase-3 beta (P49841 whole entry): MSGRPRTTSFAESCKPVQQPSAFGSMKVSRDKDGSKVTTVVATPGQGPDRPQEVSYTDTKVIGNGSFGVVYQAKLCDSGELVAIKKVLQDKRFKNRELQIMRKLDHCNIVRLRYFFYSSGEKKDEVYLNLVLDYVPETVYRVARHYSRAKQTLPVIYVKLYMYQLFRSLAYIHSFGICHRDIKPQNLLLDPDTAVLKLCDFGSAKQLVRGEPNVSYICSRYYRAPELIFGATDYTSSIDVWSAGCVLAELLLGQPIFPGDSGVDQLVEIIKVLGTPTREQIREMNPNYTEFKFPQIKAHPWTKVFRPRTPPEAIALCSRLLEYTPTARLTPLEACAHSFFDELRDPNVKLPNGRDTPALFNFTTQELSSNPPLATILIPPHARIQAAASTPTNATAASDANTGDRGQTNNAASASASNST

Measured: AC50

Chain of Glycogen synthase kinase-3 alpha (P49840 whole entry): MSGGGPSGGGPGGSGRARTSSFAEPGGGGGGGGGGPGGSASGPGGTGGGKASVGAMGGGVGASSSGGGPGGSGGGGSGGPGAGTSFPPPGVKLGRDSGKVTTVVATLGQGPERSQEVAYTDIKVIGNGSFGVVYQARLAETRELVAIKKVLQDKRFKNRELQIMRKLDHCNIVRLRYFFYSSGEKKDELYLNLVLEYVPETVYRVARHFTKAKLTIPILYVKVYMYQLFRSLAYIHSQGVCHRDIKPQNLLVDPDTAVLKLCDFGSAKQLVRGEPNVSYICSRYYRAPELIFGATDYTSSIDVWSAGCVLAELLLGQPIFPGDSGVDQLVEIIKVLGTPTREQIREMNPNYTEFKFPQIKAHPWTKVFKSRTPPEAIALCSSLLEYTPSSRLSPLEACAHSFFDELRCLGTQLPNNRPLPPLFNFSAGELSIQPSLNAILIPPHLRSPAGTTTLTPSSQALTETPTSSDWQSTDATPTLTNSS

Cc1cccc(C(=O)N[C@H]2C[C@@H](n3cnc(NC(=O)Cc4cccc5ccccc45)c3)C2)n1
active: [1] 361 nM | [2] 38 nM | [3] 107 nM
